Assay results published in the NIST ThermoML archive (doi:10.1016/j.fluid.2011.03.030).

Key:
[1] = xn = mol fraction of the nth substance listed; conditions: 101 kPa, Liquid; for viscosity: Capillary tube (Ostwald / Ubbelohde) method; for mass density: Vibrating tube method
[2] = Liquid; for viscosity: Capillary tube (Ostwald / Ubbelohde) method; for mass density: Vibrating tube method

C1C[C@@H]2[C@H]3CC[C@H](C3)[C@@H]2C1 [exo-tetrahydrodicyclopentadiene] + CC1CCCCC1
[1]
Conditions	mass density, 303.15 K [kg/m3]	mass density, 308.15 K [kg/m3]	mass density, 313.15 K [kg/m3]	viscosity, 303.15 K [mPa·s]	viscosity, 308.15 K [mPa·s]	viscosity, 313.15 K [mPa·s]
x2 = 0	927.41	923.48	919.58	2.522	2.298	2.107
x2 = 0.1404	907.42	903.45	899.48	2.047	1.891	1.736
x2 = 0.2593	889.67	885.65	881.63	1.754	1.616	1.475
x2 = 0.3693	872.78	868.72	864.67	1.502	1.386	1.275
x2 = 0.4981	851.85	847.73	843.61	1.258	1.163	1.078
x2 = 0.5813	837.98	833.82	829.66	1.113	1.02	0.963
x2 = 0.6745	821.76	817.58	813.38	0.975	0.897	0.862
x2 = 0.763	805.84	801.58	797.33	0.866	0.798	0.754
x2 = 0.8469	790.22	785.95	781.66	0.772	0.711	0.675
x2 = 0.9245	775.47	771.16	766.83	0.693	0.644	0.612

CC1CCCCC1 [methylcyclohexane]
[2]
Conditions	mass density [kg/m3]	vapor or sublimation pressure [kPa]	viscosity [mPa·s]
298.15 K, 101.33 kPa	765	–	0.678
303.15 K, 101 kPa	760.65	–	0.627
308.15 K, 101 kPa	756.29	–	0.581
313.15 K, 101 kPa	751.93	–	0.554
321.9 K, Ebulliometric method (Recirculating still)	–	17.91	–
331.5 K, Ebulliometric method (Recirculating still)	–	25.77	–
336.8 K, Ebulliometric method (Recirculating still)	–	31.22	–
342.3 K, Ebulliometric method (Recirculating still)	–	37.99	–
346.9 K, Ebulliometric method (Recirculating still)	–	44.45	–
350.7 K, Ebulliometric method (Recirculating still)	–	50.35	–
355.2 K, Ebulliometric method (Recirculating still)	–	58.09	–
359.1 K, Ebulliometric method (Recirculating still)	–	65.61	–
362.3 K, Ebulliometric method (Recirculating still)	–	72.29	–
364.8 K, Ebulliometric method (Recirculating still)	–	79.09	–
366.4 K, Ebulliometric method (Recirculating still)	–	85.13	–
369.8 K, Ebulliometric method (Recirculating still)	–	92.76	–
373.9 K, Ebulliometric method (Recirculating still)	–	100.7	–

Conditions	Normal boiling temperature [°C]
[2], Ebulliometric method (Recirculating still)	98.98
